Results as given in PMC9421654, “Discovery of Substituted Di(pyridin-2-yl)-1,2,4-thiadiazol-5-amines as Novel Macrofilaricidal Compounds for the Treatment of Human Filarial Infections” (Journal of Medicinal Chemistry, 2022).

Assays:
[1] = Rat pharmacokinetics; settings: in vivo
Text: Table S1. Compound 31cross species PK data.

[2] = in vivo; settings: dog
Text: IV formulation vehicle for rat: 15% DMA / 50%PEG / 35% D5W; for dog: 5% DMA /
PO formulation vehicle for mouse and rat: a suspension in 0.5% CMC / 0.25% Tween80, as a
suspension; for dog: a suspension in 0.5% methyl cellulose / 0.25% Tween80

CC(C)Oc1ccc(-c2nsc(Nc3ncccc3N(C)C)n2)nc1 [Compound 31, N^2-(3-(5-Isopropoxypyridin-2-yl)-1,2,4-thiadiazol-5-yl)-N3,N3-dimethylpyridine-2,3-diamine]
clearance ([1]; iv, i.v. 2 mg/kg, mean ±SD): 8.22 ± 2.72 mL/min/kg
Vd ([1]; iv, i.v. 2 mg/kg, read-out: Vss): 2.07 ± 0.92 L/kg
AUC(0-inf) ([1]; po, p.o. 10 mg/kg): 38.1 ± 5.1 µM·h
Cmax ([1]; po, p.o. 10 mg/kg): 6.28 ± 0.9 µM
Tmax ([1]; po, p.o. 10 mg/kg): 2 h
bioavailability ([1]; po, p.o. 10 mg/kg): 63 ± 20%
Vd ([2]; iv, 2 mg/kg): 3.08 ± 0.03 L/kg
clearance ([2]; iv, 2 mg/kg): 18.8 ± 2.7 mL/min/kg
AUC(0-inf) ([2]; po, 3 mg/kg): 4.02 ± 1.03 µM·h
Cmax ([2]; po, 3 mg/kg): 1.41 ± 0.53 µM
Tmax ([2]; po, 3 mg/kg): 1.2 ± 0.8 h
bioavailability ([2]; po, 3 mg/kg): 55 ± 21%
